The values below are quoted from earlier work in patent US8309061B2, “Formulations and methods for treating rhinosinusitis” (Dey Pharma, L.P., priority 2003, dated 2012).

SMILES strings stand for the structures.

Take `CCC(=O)O[C@]1(C(=O)SCF)[C@H](C)C[C@H]2[C@@H]3C[C@H](F)C4=CC(=O)C=C[C@]4(C)[C@@]3(F)[C@@H](O)C[C@@]21C` [Fluticasone propionate, S-(fluromethyl)6α,9-difluoro-11β-17-dihydroxy-16α-methyl-3-oxoandrosta-1,4-diene-17β-carbothioate, 17-propionate]: the “solubility in dimethyl sulfoxide and dimethylformamide” value (dimethyl sulfoxide and dimethylformamide) is on record as “freely soluble”. For the same compound, for the setting “methanol and 95% ethanol”, the “solubility in methanol and 95% ethanol” value is on record as “slightly soluble”. Further, where the note is “water”, the solubility in water result is listed as “practically insoluble”.
